We go through 46 molecules from patent US6967215B2, “Tetrahydrocarbazoles, a process for the preparation of those compounds, and the use thereof” (Ciba Specialty Chemicals Corporation, priority 2000, dated 2005).

Test [1] relates to Escherichia coli NCTC 8196. Briefly: MIC, microtitre dilution test (growth by optical density at 620 nm). The test is classed as cell-based. The note with it: Table 2; Escherichia coli. The procedure: (§1) Casein/soybean flour peptone bouillon for the preparation of pre-cultures of the test bacteria and yeast.
(§2) The test substances are predissolved in dimethyl sulfoxide (DMSO) and tested in a dilution series of 1:2.
(§3) Bacteria and yeast are cultured overnight in CASO bouillon, the mould is cultured overnight on mycological slant agar, and washed off with 10 ml of 0.85% sodium chloride solution (+0.1% TritonX-100).
(§4) All the test organisms are adjusted to an organism count of 1-5×10^6 CFU/ml using 0.85% sodium chloride solution.
(§5) The test substances are pre-pipetted into microtitre plates in an amount of 8 μl per well.
(§6) Pre-diluted organism suspensions are diluted 1:100 in CASO bouillon (bacteria and yeast) or Sabouraud 2% glucose bouillon (mould) and are added in an amount of 192 μl per well to the test substances.
(§7) The test batches are incubated for 48 hours at 37° C. (bacteria and yeast) or for 5 days at 28° C. (mould).
(§8) After incubation, the growth is evaluated by reference to the turbidity of the test batches (optical density) at 620 nm in a microplate reader.
(§9) The minimum inhibitory concentration (MIC value) is the concentration of substance at which (compared with the growth of the control) an appreciable inhibition of growth (≦20% growth) of the test organisms is ascertained.
(§10) One microtitre plate is used for each test organism and substance concentration. All the substances are tested in duplicate.

The subject of test [2] is Staphylococcus hominis DMS 20328. Described as above. The test is classed as cell-based. The following applies: Table 2; Staphylococcus hominis DMS 20328. The protocol: as §1, §2, §3, §4, §5, §6, §7, §8, §9, §10

Where only a bound is given, the exact number is not on record here.

In the case of `COc1ccc2[nH]c3c(c2c1)C1CC(C)CCC1C1C(=O)N(C)C(=O)C31` (centres unmarked) [Compound 172], the “MIC [ppm] E. coli” value in test [1] is recorded as over 120 ppm. Moreover, in test [2], the “MIC [ppm] S. hominis” value is over 120 ppm.
As to `COc1ccc2[nH]c3c(c2c1)C1CCCCCC1C1C(=O)NC(=O)C31` (centres unmarked) [Compound 94], the “MIC [ppm] E. coli” value in test [1] was over 120 ppm. Further, in test [2], the “MIC [ppm] S. hominis” value is recorded as over 120 ppm.
Take `COc1ccc2[nH]c3c(c2c1)C1CCCCC1C1C(=O)NC(=O)C31` (centres unmarked) [Compound 91]: the “MIC [ppm] E. coli” value in test [1] was over 120 ppm. For the same molecule, the “MIC [ppm] S. hominis” value in test [2] was over 120 ppm.
Consider `COc1ccc2[nH]c3c(c2c1)C1CCN(Cc2ccccc2)CC1C1C(=O)N(C)C(=O)C31` (centres unmarked) [Compound 177], for which, in test [1], the “MIC [ppm] E. coli” value stood at 120 ppm. Besides, the “MIC [ppm] S. hominis” value in test [2] was determined as 120 ppm.
As for `COc1ccc2[nH]c3c(c2c1)C1CCN(C)CC1C1C(=O)NC(=O)C31` (centres unmarked) [Compound 105], the “MIC [ppm] E. coli” value in test [1] is over 120 ppm. Further, in test [2], the “MIC [ppm] S. hominis” value is listed as over 120 ppm.
Turning to `CCc1cccc2c3c([nH]c12)C1C(=O)NC(=O)C1C1CCCCC31` (centres unmarked) [Compound 74], in test [1], the “MIC [ppm] E. coli” value is recorded as over 120 ppm. The “MIC [ppm] S. hominis” value in test [2] turned out to be 60 ppm.
In the same order, the values of `CCN1CCC2c3c([nH]c4ccccc34)C3C(=O)N(C)C(=O)C3C2C1` (centres unmarked) [Compound 121] are over 120 ppm and over 120 ppm.
The corresponding values for `CN1C(=O)C2c3[nH]c4ccccc4c3C3CCN(Cc4ccccc4)CC3C2C1=O` (centres unmarked) [Compound 122] are over 120 ppm and over 120 ppm.
For the molecule `COc1ccc2[nH]c3c(c2c1)C1CC(C)(C)CC(C)(C)C1C1C(=O)N(C)C(=O)C31` (centres unmarked) [Compound 181], the “MIC [ppm] E. coli” value in test [1] is over 120 ppm. For the same molecule, the “MIC [ppm] S. hominis” value in test [2] is given as over 120 ppm.
For the molecule `CCCC1CCC2c3c([nH]c4ccccc34)C3C(=O)N(C)C(=O)C3C2C1` (centres unmarked) [Compound 119], in test [1], the “MIC [ppm] E. coli” value is recorded as over 120 ppm. Moreover, in test [2], the “MIC [ppm] S. hominis” value is over 120 ppm.
As to `CCc1cccc2c3c([nH]c12)C1C(=O)NC(=O)C1C1CCCC31` (centres unmarked) [Compound 75], the “MIC [ppm] E. coli” value in test [1] was over 120 ppm. Besides, in test [2], the “MIC [ppm] S. hominis” value stood at 30 ppm.
The corresponding values for `CN1C(=O)C2c3[nH]c4ccc(Br)cc4c3C3CCC(C(C)(C)C)CC3C2C1=O` (centres unmarked) [Compound 129] are over 120 ppm and over 120 ppm.
In the same order, the values of `CCN1C(=O)C2c3c(c4ccccc4n3C)C3CCC(C(C)(C)C)CC3C2C1=O` (centres unmarked) [Compound 49] are over 120 ppm and over 120 ppm.
In the same order, the values of `COc1ccc2[nH]c3c(c2c1)C1CCN(C(C)C)CC1C1C(=O)N(C)C(=O)C31` (centres unmarked) [Compound 171] are over 120 ppm and over 120 ppm.
`COc1ccc2[nH]c3c(c2c1)C1CCC(C(C)(C)C)CC1C1C(=O)N(C)C(=O)C31` (centres unmarked) [Compound 166]: the “MIC [ppm] E. coli” value in test [1] is over 120 ppm. Further, the “MIC [ppm] S. hominis” value in test [2] is recorded as over 120 ppm.
On to `CCC(C)(C)C1CCC2c3c([nH]c4ccc(OC)cc34)C3C(=O)N(C)C(=O)C3C2C1` (centres unmarked) [Compound 175], for which the “MIC [ppm] E. coli” value in test [1] is on record as over 120 ppm. In addition, the “MIC [ppm] S. hominis” value in test [2] was over 120 ppm.
For `CCCN1CCC2c3c([nH]c4ccc(OC)cc34)C3C(=O)N(C)C(=O)C3C2C1` (centres unmarked) [Compound 169], the “MIC [ppm] E. coli” value in test [1] is over 120 ppm. Further, in test [2], the “MIC [ppm] S. hominis” value is over 120 ppm.
With `CN1C(=O)C2c3[nH]c4ccccc4c3C3CCC(C(C)(C)C)CC3C2C1=O` (centres unmarked) [Compound 111], in test [1], the “MIC [ppm] E. coli” value is over 120 ppm. Moreover, the “MIC [ppm] S. hominis” value in test [2] is 60 ppm.
In the same order, the values of `CC1CCC2C(C1)c1c([nH]c3ccccc13)C1C(=O)NC(=O)C12` (centres unmarked) [Compound 56] are over 120 ppm and 30 ppm.
In the same order, the values of `COc1ccc2[nH]c3c(c2c1)C1CCCCCC1C1C(=O)N(C)C(=O)C31` (centres unmarked) [Compound 167] are over 120 ppm and over 120 ppm.
The corresponding values for `CCN1CCC2c3c([nH]c4ccc(OC)cc34)C3C(=O)N(C)C(=O)C3C2C1` (centres unmarked) [Compound 176] are over 120 ppm and over 120 ppm.
`CCc1cccc2c3c([nH]c12)C1C(=O)N(C)C(=O)C1C1CCCCCCC31` (centres unmarked) [Compound 162]: in test [1], the “MIC [ppm] E. coli” value is over 120 ppm. In test [2], the “MIC [ppm] S. hominis” value is listed as 120 ppm.
In the same order, the values of `COc1ccc2[nH]c3c(c2c1)C1CCCCCCC1C1C(=O)N(C)C(=O)C31` (centres unmarked) [Compound 180] are over 120 ppm and over 120 ppm.
The corresponding values for `COc1ccc2[nH]c3c(c2c1)C1CCN(Cc2ccccc2)CC1C1C(=O)NC(=O)C31` (centres unmarked) [Compound 104] are over 120 ppm and over 120 ppm.
In the same order, the values of `CC(C)(C)C1CCC2c3c([nH]c4ccccc34)C3C(=O)NC(=O)C3C2C1` (centres unmarked) [Compound 26] are over 120 ppm and 15 ppm.
For the molecule `CCN1C(=O)C2c3[nH]c4ccccc4c3C3CCC(C(C)(C)C)CC3C2C1=O` (centres unmarked) [Compound 39], the “MIC [ppm] E. coli” value in test [1] was over 120 ppm. The “MIC [ppm] S. hominis” value in test [2] was over 120 ppm.
On to `COc1ccc2[nH]c3c(c2c1)C1CCCCCCCCCCC1C1C(=O)N(C)C(=O)C31` (centres unmarked) [Compound 179], for which the “MIC [ppm] E. coli” value in test [1] is over 120 ppm. Further, the “MIC [ppm] S. hominis” value in test [2] is over 120 ppm.
Consider `CCCN1CCC2c3c([nH]c4ccc(Br)cc34)C3C(=O)N(CC)C(=O)C3C2C1` (centres unmarked) [Compound 46], for which the “MIC [ppm] E. coli” value in test [1] amounted to 120 ppm. Also, the “MIC [ppm] S. hominis” value in test [2] is 120 ppm.
In the case of `CCCCCCC1CCC2C3C(=O)NC(=O)C3c3[nH]c4ccccc4c3C12` (centres unmarked) [Compound 57], the “MIC [ppm] E. coli” value in test [1] is listed as over 120 ppm. For the same molecule, in test [2], the “MIC [ppm] S. hominis” value is over 120 ppm.
`CC1(C)CC2c3c([nH]c4ccccc34)C3C(=O)NC(=O)C3C2C(C)(C)C1` (centres unmarked) [Compound 63]: the “MIC [ppm] E. coli” value in test [1] is over 120 ppm. For the same molecule, in test [2], the “MIC [ppm] S. hominis” value is reported as 7.5 ppm.
In the same order, the values of `CN1C(=O)C2c3[nH]c4ccccc4c3C3CCCCCCC3C2C1=O` (centres unmarked) [Compound 125] are over 120 ppm and over 120 ppm.
The corresponding values for `CCCN1CCC2c3c([nH]c4ccc(Br)cc34)C3C(=O)NC(=O)C3C2C1` (centres unmarked) [Compound 33] are 60 ppm and 30 ppm.
In the same order, the values of `CCCN1CCC2c3c([nH]c4ccccc34)C3C(=O)N(c4ccccc4)C(=O)C3C2C1` (centres unmarked) [Compound 15] are over 120 ppm and over 120 ppm.
For `COc1ccc2[nH]c3c(c2c1)C1CC(C)(C)CC(C)(C)C1C1C(=O)NC(=O)C31` (centres unmarked) [Compound 108], the “MIC [ppm] E. coli” value in test [1] is recorded as over 120 ppm. Further, in test [2], the “MIC [ppm] S. hominis” value is over 120 ppm.
Consider `CC1(C)CC2c3c([nH]c4ccccc34)C3C(=O)NC(=O)C3C2C(C)(C)N1` (centres unmarked) [Compound 28], for which the “MIC [ppm] E. coli” value in test [1] is over 120 ppm. In addition, the “MIC [ppm] S. hominis” value in test [2] was over 120 ppm.
Regarding `CN1C(=O)C2c3[nH]c4ccc(Br)cc4c3C3CCCCCC3C2C1=O` (centres unmarked) [Compound 130], the “MIC [ppm] E. coli” value in test [1] is reported as over 120 ppm. Moreover, in test [2], the “MIC [ppm] S. hominis” value is on record as 15 ppm.
With `CC(C)(C)C1CCC2c3c([nH]c4ccc(Br)cc34)C3C(=O)N(c4ccccc4)C(=O)C3C2C1` (centres unmarked) [Compound 19], the “MIC [ppm] E. coli” value in test [1] is recorded as over 120 ppm. Further, the “MIC [ppm] S. hominis” value in test [2] is on record as over 120 ppm.
Consider `CCOC(=O)N1CCC2c3c([nH]c4ccccc34)C3C(=O)NC(=O)C3C2C1` (centres unmarked) [Compound 54], for which, in test [1], the “MIC [ppm] E. coli” value is recorded as over 120 ppm. Further, in test [2], the “MIC [ppm] S. hominis” value is recorded as over 120 ppm.
With `CN1C(=O)C2c3[nH]c4ccccc4c3C3CC(C)(C)NC(C)(C)C3C2C1=O` (centres unmarked) [Compound 113], the “MIC [ppm] E. coli” value in test [1] is listed as over 120 ppm. The “MIC [ppm] S. hominis” value in test [2] is over 120 ppm.
In the case of `O=C1NC(=O)C2C1c1[nH]c3ccc(Br)cc3c1C1CCCCCC12` (centres unmarked) [Compound 32], the “MIC [ppm] E. coli” value in test [1] was over 120 ppm. The “MIC [ppm] S. hominis” value in test [2] is 3.75 ppm.
The corresponding values for `CCOC(=O)N1CCC2c3c([nH]c4ccccc34)C3C(=O)N(C)C(=O)C3C2C1` (centres unmarked) [Compound 115] are over 120 ppm and 60 ppm.
The corresponding values for `COc1ccc2[nH]c3c(c2c1)C1CCCCCCC1C1C(=O)NC(=O)C31` (centres unmarked) [Compound 107] are over 120 ppm and 120 ppm.
The corresponding values for `CCCC1CCC2c3c([nH]c4ccc(OC)cc34)C3C(=O)NC(=O)C3C2C1` (centres unmarked) [Compound 101] are over 120 ppm and over 120 ppm.
Turning to `CCCCCCC1CCC2C3C(=O)NC(=O)C3c3[nH]c4c(CC)cccc4c3C12` (centres unmarked) [Compound 83], the “MIC [ppm] E. coli” value in test [1] was over 120 ppm. For the same molecule, the “MIC [ppm] S. hominis” value in test [2] is reported as over 120 ppm.
As for `CCCN1CCC2c3c([nH]c4ccccc34)C3C(=O)N(C)C(=O)C3C2C1` (centres unmarked) [Compound 114], the “MIC [ppm] E. coli” value in test [1] was over 120 ppm. Further, the “MIC [ppm] S. hominis” value in test [2] is given as over 120 ppm.
As to `CCOC(=O)N1CCC2c3c([nH]c4ccc(OC)cc34)C3C(=O)N(C)C(=O)C3C2C1` (centres unmarked) [Compound 170], the “MIC [ppm] E. coli” value in test [1] is over 120 ppm. For the same molecule, the “MIC [ppm] S. hominis” value in test [2] was over 120 ppm.
